Tests used:
MUP [1] = molecular target: T1, MUP (Mus musculus, UniProt P11588); assay: Binding of small hydrophobic ligands to MUP (Kd)
T1 construct: made in house; host or cells: E. coli M15 cells with vector pqe30 MUP
T1 sequence (P11588 19-180): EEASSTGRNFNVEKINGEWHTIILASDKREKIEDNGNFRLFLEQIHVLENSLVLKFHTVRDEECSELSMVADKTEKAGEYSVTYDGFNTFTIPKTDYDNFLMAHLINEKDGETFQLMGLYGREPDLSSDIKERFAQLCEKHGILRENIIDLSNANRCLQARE

Mouse Urinary Protein = molecular target: T2, Mouse Urinary Protein (Mus musculus, UniProt P11588); assay: 13C NMR relaxation (T1, T2) of valine 13CHD2-labeled MUP in absence and presence of ligand; details: for T1, Change / T2, Change: Protein vs Bound Protein; for T1, Bound Protein / T2, Bound Protein: 298 K;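 for T1, Bound Protein: unit milliseconds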;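 for T2, Bound Protein: unit milliseconds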
T2 construct: made in house; host or cells: E. coli M15 cells with vector pqe30 MUP
T2 sequence (P11588 19-180): T1 sequence (P11588 19-180)
Method: A 15 mg sample of L-valine-α-D-^12CD(^13CHD2)2 labeled MUP was dissolved in 650 μL phosphate buffered saline (10 mM potassium phosphate; 200 mM sodium chloride), to which was added 50 μL deuterium oxide. ^13C Relaxation rates (R2 and R1) of ^13CHD2 groups were determined using pulse sequences as described in Ishima et al., J. Am. Chem. Soc. 121:11589-11590 (1999). Spectral parameters were as follows: spectral width in the ^13C dimension, 900 Hz; spectral width in the ^1H dimension, 5200 Hz; number of real data points in the ^13C dimension, 128; number of real points in the ^1H dimension, 1408; number of transients per t1 increment, 8; probe temperature, 298 K. Prior to two-dimensional Fourier transformation, free induction decays were apodized with cosine-bell windowing functions according to known methods.
The NMR analysis was then repeated following addition of the small molecule ligand 1 μL of isobutyl pyrazine or 1 μL of isopropyl pyrazine to separate solutions of MUP. The data shown below in Tables I and II and in FIG. 8 were obtained, clearly showing the changes in T1 and T2 values obtained on addition of these small molecule ligands.

Major Urinary Protein = molecular target: T3, Major Urinary Protein (Mus musculus, UniProt P11588); assay: S2axis order parameters of valine methyl groups from 600 MHz 13C R1/R2 relaxation of valine-enriched MUP and its complexes; details: for S^2axis: MUP-ligand complex, 600 MHz, 30° C., pH 7.0
T3 construct: made in house; host or cells: E. coli M15 cells with vector pqe30 MUP
T3 sequence (P11588 19-180): T1 sequence (P11588 19-180)
Method: Samples of [^13C^γ1,^γ2HD2]-U-^2H valine enriched MUP both alone and complexed with 2-methoxy-3-isopropylpyrazine and 2-methoxy-3-isobutylpyrazine were prepared from a single sample at pH 7.0 and a protein concentration of 1 mM. A further sample of methyl-^13C, ^2H enriched MUP was prepared at pH 7.0 and a protein concentration of 0.5 mM. Longitudinal (R1) and transverse (R2) ^13C relaxation rates were determined essentially as described by Ishima et al., J. Am. Chem. Soc. 121:11589-11590, 1999. All spectra were recorded at a proton frequency of 600 MHz and a probe temperature of 30° C. R1 rates were determined with relaxation delay times of 16, 64, 128, 240, 400, 720, 1120, 1600, 2240 and 2880 milliseconds. R2 rates were determined with relaxation delay times of 16, 32, 48, 64, 96, 160, 192, 240 and 288 milliseconds, and an effective field strength of 2 kHz. Relaxation data were fit to a single exponential decay function I=I0exp(−tR), where I0 is the initial resonance intensity, t is the relaxation delay time and R is the relaxation rate (R1 or R2). Relaxation data were fitted to the Lipari-Szabo model-free spectral density of the form: J(ω)=S^2τm/(1+ω^2τ^2m)+(1−S^2)τi/(1+ω^2τi^2), where τi^−1=τM^−1+τe^−1, τM is the overall molecular tumbling correlation time and τe is the effective internal correlation time. See Lipari and Szabo, J. Am. Chem. Soc. 104:4546-4559, 1982. This equation is valid for fast internal motions, τe<<τM, under which conditions the order parameter for methyl CH dipolar relaxation is given by S^2=Saxis^2[P2(cos θH]^2. Saxis^2 is the order parameter of the methyl rotation axis and θH is the angle made by the axis and the CH bond vector. A global rotational correlation time of […] was used for these calculations, according to the previously reported value. Zidek et al., Nature Str. Biol. 6:1118-1121, 1999. Although the valine residues were perdeuterated at non-methyl positions, the protein was otherwise protonated, and dipolar relaxation due to these “external” protons is not negligible for ^13C relaxation. Thus, by analogy with the work of Ishima et al. J. Am. Chem. Soc. 123:6164-6171, 2001, the contribution of these external protons to ^13C R2 values was estimated at 25% from the X-ray coordinates of MUP. Consequently, measured ^13C R^2 rates were multiplied by 0.75 to account for these external dipolar relaxation processes.

MUP [2] = molecular target: T1, MUP; assay: 13C-1H HSQC spectra of valine-enriched MUP complexes; details: 13C-1H HSQC of complexes with valine-enriched MUP
[3] = valine methyl 59.HG1 (first line)
[4] = valine methyl 59.HG1 (second line)

## COc1nccnc1C(C)C [2-methoxy-3-isopropylpyrazine]
MUP [1]
  Kd: 560 nM
Mouse Urinary Protein; 12.HG1
  T1, Change: −8.387 milliseconds
  T2, Change: −8.329 milliseconds
Mouse Urinary Protein; 12.HG2
  T1, Change: −40.959 milliseconds
  T2, Change: −9.198 milliseconds
Mouse Urinary Protein; 47.HG1
  T1, Change: 2.421 milliseconds
  T2, Change: −13.342 milliseconds
Mouse Urinary Protein; 47.HG2
  T1, Change: −76.984 milliseconds
  T2, Change: −4.561 milliseconds
Mouse Urinary Protein; 53.HG1
  T1, Change: −50.272 milliseconds
  T2, Change: −14.174 milliseconds
Mouse Urinary Protein; 53.HG2
  T1, Change: 8.962 milliseconds
  T2, Change: −7.866 milliseconds
Mouse Urinary Protein; 59.HG1 (first line)
  T1, Change: −91.665 milliseconds
  T2, Change: −16.574 milliseconds
Mouse Urinary Protein; 59.HG1 (second line)
  T1, Change: −49.656 milliseconds
  T2, Change: −6.181 milliseconds
Mouse Urinary Protein; 70.HG1
  T1, Change: 209.318 milliseconds
  T2, Change: −41.741 milliseconds
Mouse Urinary Protein; 70.HG2
  T1, Change: 86.431 milliseconds
  T2, Change: 11.930 milliseconds
Mouse Urinary Protein; 82.HG1
  T1, Change: −10.201 milliseconds
  T2, Change: 10.857 milliseconds
Mouse Urinary Protein; 82.HG2
  T1, Change: 0.991 milliseconds
  T2, Change: 19.924 milliseconds
Mouse Urinary Protein; from relaxation data in the presence of ligand
  contribution of valine side-chains to the entropy of binding: do not contribute significantly
Mouse Urinary Protein; valine methyl 12.HG1
  T1, Bound Protein: 1733.309 milliseconds
  T2, Bound Protein: 161.437 milliseconds
Mouse Urinary Protein; valine methyl 12.HG2
  T1, Bound Protein: 1509.370 milliseconds
  T2, Bound Protein: 192.512 milliseconds
Mouse Urinary Protein; valine methyl 47.HG1
  T1, Bound Protein: 1626.298 milliseconds
  T2, Bound Protein: 168.574 milliseconds
Mouse Urinary Protein; valine methyl 47.HG2
  T1, Bound Protein: 1067.605 milliseconds
  T2, Bound Protein: 155.315 milliseconds
Mouse Urinary Protein; valine methyl 53.HG1
  T1, Bound Protein: 2283.543 milliseconds
  T2, Bound Protein: 177.873 milliseconds
Mouse Urinary Protein; valine methyl 53.HG2
  T1, Bound Protein: 1355.764 milliseconds
  T2, Bound Protein: 158.149 milliseconds
Mouse Urinary Protein; [3]
  T1, Bound Protein: 1374.428 milliseconds
  T2, Bound Protein: 195.222 milliseconds
Mouse Urinary Protein; [4]
  T1, Bound Protein: 1572.793 milliseconds
  T2, Bound Protein: 153.897 milliseconds
Mouse Urinary Protein; valine methyl 70.HG1
  T1, Bound Protein: 1872.254 milliseconds
  T2, Bound Protein: 162.943 milliseconds
Mouse Urinary Protein; valine methyl 70.HG2
  T1, Bound Protein: 1077.097 milliseconds
  T2, Bound Protein: 150.103 milliseconds
Mouse Urinary Protein; valine methyl 82.HG1
  T1, Bound Protein: 925.102 milliseconds
  T2, Bound Protein: 213.526 milliseconds
Mouse Urinary Protein; valine methyl 82.HG2
  T1, Bound Protein: 668.810 milliseconds
  T2, Bound Protein: 203.529 milliseconds
Major Urinary Protein
  changes in Saxis^2 of the six valine residues in MUP upon binding: only minor changes
Major Urinary Protein; Val-12 C^γ1
  S^2axis: 0.90
Major Urinary Protein; Val-12 C^γ2
  S^2axis: 0.69
Major Urinary Protein; Val-47 C^γ1
  S^2axis: 0.84
Major Urinary Protein; Val-47 C^γ2
  S^2axis: 0.90
Major Urinary Protein; Val-53 C^γ1
  S^2axis: 0.80
Major Urinary Protein; Val-53 C^γ2
  S^2axis: 0.85
Major Urinary Protein; Val-59 C^γ1
  S^2axis: 0.68
Major Urinary Protein; Val-59 C^γ2
  S^2axis: 0.86
Major Urinary Protein; Val-70 C^γ1
  S^2axis: 0.85
Major Urinary Protein; Val-70 C^γ2
  S^2axis: 0.77
Major Urinary Protein; Val-82 C^γ1
  S^2axis: 0.50
Major Urinary Protein; Val-82 C^γ2
  S^2axis: 0.48
Major Urinary Protein; from computations of Saxis^2 values, free protein and complexes
  contribution of valine side-chains to the entropy of binding: do not contribute significantly
MUP [2]
  shift perturbations of Val 82 γ1 and γ2 correlations: Significant shift perturbations

Reference: patent US20060154323A1, “Method for obtaining dynamic and structural data pertaining to proteins and protein/ligand complexes” (ProSpect Pharma, priority 2002, published 2006)
